From US8604085B2, “Bupropion hydrobromide polymorphs” (Valeant International Bermuda, priority 2008, dated 2013)
Entries after “also recorded” stand apart in the source; their conditions may differ. Structures can show the parent of a compound that is named as a salt.

Experiments:
Format in all cases: physicochemical
[1] = TGA and DSC characterization; details: for DSC (onset ° C.): successive thermal events listed per polymorph; for TGA (mass change): successive mass-loss steps listed per polymorph
Protocol: The PXRD diffraction patterns were obtained on X-ray powder diffraction PANalytical X′pert Pro equipped with X′Celerator, in a measurement range between 3 and 40 2 theta. All the DSC experiments were performed with a DSC 7 Perkin Elmer instrument in a temperature range between 25° C. and 250° C. with a heating rate of 10° C./min.
All the TGA experiments were conducted with a TGA 7 Perkin Elmer instrument in a temperature range between 39° C. and 310° C. with a heating rate of 10° C./min.
PXRD, DSC, TGA and IR analyses were obtained for Bupropion Hydrobromide Polymorph Form I, Form II, Form III, Form IV, Form V, Form VI, and Form VII. PXRD analyses were obtained for the amorphous form. With respect to the PXRD analyses, the Peak List is shown for Form I, Form II, Form III, Form IV, Form V, Form VI, Form VII and the amorphous form in Table 56, Table 57, Table 58, Table 59, Table 60, Table 61, Table 62 and Table 63 respectively.

[2] = Stability tests on bupropion hydrobromide polymorphs in humidity chamber (XRD pattern); details: 28 days; 25° C.; 75% R.H.
[3] = as above; details: 40° C., 85% R.H., open sample-holder
Protocol: Stability tests were performed on bupropion hydrobromide Form I, Form II, Form III, Form IV, Form V and Form VI. The powders were stored in a controlled atmosphere (85% R.H.) at 40° C. Form I and Form II were stored for 7 and 30 days respectively, while the other forms were stored only for 30 days. The sample was positioned on the sample-holder which was introduced, without any cover, into the humidity chamber at 40° C. The layer of the sample on the sample-holder was about 0.5 cm.
In addition, stability tests were performed on bupropion hydrobromide Form VII.

[4] = Release of bupropion base from the salt; details: 150 mg of the salt tested
Protocol: It was previously observed that when 150 mg of bupropion HCl was tested for its release of bupropion, the base value that was released was 130 mg. However, when 150 mg of bupropion HBr was tested, the base value released was only 112 mg. Thus, the amount of bupropion HBr had to be increased in order to increase the base value from 112 mg to 130 mg, which was the target.

[5] = Slurry experiments at room temperature (thermodynamic stability of crystal forms, X-ray diffraction); details: for Slurry Result: 7 days, room temperature, form by XRD
Protocol: Slurry experiments of Form I were performed at room temperature to verify if Form I is the thermodynamic crystal form. 0.050 g of Form I was suspended in 2 ml of solvent and stirred for 1 week. The sample was filtered and analyzed by X-ray diffraction. In the large majority of the experiments, Form I converts into Form II. […] By 1,4-Dioxane, a new crystal form was obtained named Form V. See Table 46 for the Form I slurries results (7 days).
Further slurry experiments of Form I were performed at room temperature using 0.5 g of powder in 10 mL of solvent to confirm the results obtained even in large scale.
0.050 g of Form I were suspended in 2 ml of solvent and stirred at room temperature for 4 weeks (30 days). The sample was filtered and analyzed by X-ray diffraction. By 1,4-Dioxane, Form V was obtained. By tetrahydrofuran, Form II and Form VII were obtained. […] See Table 47 for the Form I slurries results (30 days).
(§1) Slurry experiments of mixtures of Form I and Form II were performed at room temperature to verify their thermodynamic stability. 0.040 g of Form I+0.040 g of Form II were suspended in 4 ml of solvent and stirred for 1 week (7 days). The samples were filtered and analyzed by X-ray diffraction. By 1,4-Dioxane, Form V was obtained. […] See Table 48 for the Form I+Form II slurries results (7 days).
as §1, with “II” for “I”, “III” for “II”, “II+0.040” for “I+0.040”, “49” for “48”, “II+Form III” for “I+Form II”
as §1, with “II” for “I”, “IV” for “II”, “II+0.040” for “I+0.040”, “50” for “48”, “II+Form IV” for “I+Form II”
as §1, with “II” for “I”, “V” for “II”, “II+0.040” for “I+0.040”, “51” for “48”, “II+Form V” for “I+Form II”
as §1, with “II” for “I”, “VI” for “II”, “II+0.040” for “I+0.040”, “52” for “48”, “II+Form VI” for “I+Form II”
as §1, with “II” for “I”, “VII” for “II”, “II+0.040” for “I+0.040”, “53” for “48”, “II+Form VII” for “I+Form II”

[6] = Slurries in 2-propanol at room temperature, 50° C. and 80° C.; details: form by XRD
Protocol: 0.050 g of Form I were suspended in 4 ml of solvent and stirred at room temperature. for 1 week (7 days). The sample was filtered and analyzed by X-ray diffraction.
0.040 g of Form I+0.040 g of Form II were suspended in 4 ml of solvent and stirred at room temperature for 1 week (7 days). The sample was filtered and analyzed by X-ray diffraction experiments.
0.050 g of Form II were suspended in 4 ml of solvent and stirred at room temperature for 1 week (7 days). The sample was filtered and analyzed by X-ray diffraction experiments.
0.050 g of Form I were suspended in 4 ml of solvent and stirred at 50° C. for 1 Week (7 days). The sample was filtered and analyzed by X-ray diffraction experiments.
0.040 g of Form I+0.040 g of Form II were suspended in 4 ml of solvent and stirred at 50° C. for 1 week (7 days). The sample was filtered and analyzed by X-ray diffraction experiments.
Form I+Form II were suspended in solvent and stirred at 80° C. for 14 hours. The sample was filtered and analyzed by X-ray diffraction experiments. […] Slurry in 2-propanol at 80° C. is an atypical experiment because if we consider the boiling point of the solvent, it could be defined as a combination between a slurry and precipitation experiment. Form I was obtained during the precipitation from supersaturated solution by 2-propanol. However the high temperature and the reflux produce the energetic conditions needed by the stable crystal form (Form II) to convert to the metastable crystal form (Form I).

[7] = room temperature, 1 week (7 days)

## Br.CC(NC(C)(C)C)C(=O)c1cccc(Cl)c1 (centres unmarked) [Form VII]
[1]
  DSC (onset ° C.): 268.7 °C
[2]
  XRD pattern / crystal form after storage: stable form

## Br.CC(NC(C)(C)C)C(=O)c1cccc(Cl)c1 (centres unmarked) [Form V]
[3]; 30 days
  XRD pattern / crystal form after storage: converted into Form I
[1]
  DSC (onset ° C.): 237.85 °C

## Br.CC(NC(C)(C)C)C(=O)c1cccc(Cl)c1 (single isomer, unassigned) [Form VI]
[3]; 30 days
  XRD pattern / crystal form after storage: converted into a mixture of Form I+Form II
[1]
  TGA (mass change): −97.68%
  DSC (onset ° C.): 235 °C

## Br.CC(NC(C)(C)C)C(=O)c1cccc(Cl)c1 (centres unmarked) [Form IV]
[3]; 30 days
  XRD pattern / crystal form after storage: converted into Form I

## Br.CC(NC(C)(C)C)C(=O)c1cccc(Cl)c1 (centres unmarked) [Form III]
[3]; 30 days
  XRD pattern / crystal form after storage: converted into Form I

## CC(NC(C)(C)C)C(=O)c1cccc(Cl)c1 (centres unmarked) [bupropion HCl, reference compound]
[4]
  base value that was released: 130 mg

## Br.CC(NC(C)(C)C)C(=O)c1cccc(Cl)c1 (single isomer, unassigned) [Form II]
[3]; 7 days
  XRD pattern / crystal form after storage: did not show modification
[3]; 30 days
  XRD pattern / crystal form after storage: did not show modification
[1]
  TGA (mass change): −93.35%
[5]
  Thermodynamic stability of the crystal form as shown by slurry experiments: thermodynamically stable crystal form; also recorded: thermodynamic stable form
[6]; mixture Form I+Form II, 80° C., 14 hours
  Slurry result in 2-propanol: converted to Form I
[6]; [7]
  Slurry result in 2-propanol: Form II was obtained

## Br.CC(NC(C)(C)C)C(=O)c1cccc(Cl)c1 (centres unmarked) [Form I + Form II]
[5]; 1,2-Dimethoxy Ethane
  Slurry Result: Form II
[5]; 1,4-Dioxane
  Slurry Result: Form V
[5]; Acetone
  Slurry Result: Form II
[5]; Diethyl ether
  Slurry Result: Form II
[5]; Ethyl acetate
  Slurry Result: Form II
[5]; n-Hexan
  Slurry Result: Form II
[5]; p-Xylene
  Slurry Result: Form II
[6]; 50° C., 1 week (7 days)
  Slurry result in 2-propanol: Form II was obtained
[6]; [7]
  Slurry result in 2-propanol: Form II was obtained

## Br.CC(NC(C)(C)C)C(=O)c1cccc(Cl)c1 (centres unmarked) [Form II + Form III]
[5]; 1,2-Dimethoxy Ethane
  Slurry Result: Form II
[5]; 1,4-Dioxane
  Slurry Result: Form V
[5]; Acetone
  Slurry Result: Form II
[5]; Diethyl ether
  Slurry Result: Form II
[5]; Ethyl acetate
  Slurry Result: Form II
[5]; n-Hexan
  Slurry Result: Form II
[5]; p-Xylene
  Slurry Result: Form II
